Test results from patent US9244073B2, “Assays for detecting enzymatic activity” (Wellstat Diagnostics, LLC, priority 2011, dated 2016).
Primed or numbered codes have the meaning given here. KLCBiot = lysine with long-chain biotin conjugated to the side-chain primary amine (Lysine-Long-Chain-Biotin); mPeg2 = hydrophilic 9-atom polyethylene (PEG) spacer; Bz′ = not defined here

Assays:
Type in all cases: biochemical
FXa [1] = assay: Detecting FXa activity by detection of a neoepitope with TAG Plus anti-FLAG M1 detector antibody (ECL immunoassay)
Text: FXa activity can be measured using peptides comprising a FXa recognition site (-IEGR-) (SEQ ID NO:1) at their N-terminus followed by an amino acid sequence which can be cleaved “off” by FXa. For example, peptide sequence III, below, can be cleaved by FXa to produce peptide sequence IV below. The FXa cleavage of the peptide bond after the arginine residue of the -IEGR- sequence (SEQ ID NO:1) produces a free NH2 group at the N-terminal of the peptide sequence (sequence IV) and the peptide sequence becomes a new epitope (neoepitope) after cleavage.
A FXa activity calibrator curve was set up in a 96-well U bottom microtiter plate containing 100 μL of a 3-fold serial dilution of FXa at 500, 167, 55.6, 18.5, 6.17, 2.06 and 0.686 ng/mL in an assay buffer [50 mM Tris-HCl (pH 7.4), 100 mM NaCl, 0.5% BSA, 10 mg/mL ciprofloxacin, 0.5% Tween-20 and 7.0 mM CaCl2] and 50 μL of a master mix of FXa detection reagent containing 200 μg/mL of M280-SA beads, 600 ng/mL of a peptide sequence V and 1000 ng/mL of TAG Plus anti-FLAG® M1 antibody (Example 2) in the same assay buffer. The peptide sequence V comprises peptide sequence III and a sequence HHHHHH(mPeg2)(KLCBiot)-amide (SEQ ID NO:9). The HHHHHH(mPeg2) (SEQ ID NO:9), a mini-PEG molecule with 9 carbon polyethylene molecule, serves as a spacer, which was conjugated with a lysine at its C-terminus. A biotin molecule was conjugated to the primary amine group on the side chain of the lysine. The peptide can be captured through the high affinity interaction between biotin and streptavidin molecule.
The plate was incubated on a hot plate (Digital Heatblock, Cat. 12621-100, VWR International, LLC., West Chester, Pa. 19380) at 37° C. for 10 or 20 minutes. After the incubation, the beads were washed once in 150 μL of the PBS-based buffer solution (Example 1) and recovered by attaching a plate magnet to the 96-well plate (LIFESEP™ 96F, Dexter Magnetic Technologies Inc., Elk Grove Village, Ill. 60007). Beads were resuspended in 150 μL of the PBS-based buffer and read in a M1MR analyzer. […] Under both incubation conditions, FXa activities were detectable at 1.00 ng/mL or lower concentrations of FXa (signal/background ≧3.0). This lower detection limit is unexpectedly much better than that achieved in Example 1.

bovine FX = assay: Detecting plasma FIX activity by detecting FXa activity using an immunoassay (ECL); details: diluted reference plasma
Description: A FIX activity calibrator curve was set up in a 96-well U bottom microtiter plate, which was equilibrated to 37° C. in an incubator. All coagulating factor reagents were from Haematologic Technologies, Inc. ((HTI), Essex Junction, Vt.), unless specifically noted. To 50 μL of a factor reagent containing 1.6 nM bovine FXIa (Cat: HCX1A-0160), 0.0681 nM bovine α-thrombin (Cat: BCT-1020), 24.5 nM bovine FX (BCX-1050), […] FVIII (Cat: PRO-318, PROSPEC, Rehovot, Israel), 100 μM phosphorliposome (80% phosphatidylcholine and 20% phosphatidylserine) and 0.75 mM Gly-Pro-Arg-Pro amide (Cat: GPRP-NH2. Sigma, St. Louis; SEQ ID NO:32), 25 μL of a diluted reference plasma (HEMOSIL™ Calibration Plasma, Cat: 0020003700, Diapharma Group Inc., Columbus, Ohio) containing 24.4, 8.13, 2.71, 0.904, 0.301, 0.100 and 0.0335 mU/mL of FIX in the assay buffer (Example 4) were added, mixed and incubated for exactly 10 minutes in a hot plate set at 37° C. After the incubation, to the 75 μL of assay mixture, 50 μL of a master mix of FXa detection reagent (Example 4), containing 200 μg/mL of M280-SA beads, 600 ng/mL of a peptide (peptide sequence III), 1000 ng/mL of TAG Plus anti-FLAG® M1 antibody (Example 2), and 30 μg/mL I-2581 (synthetic thrombin inhibitor, cat: 82110810, DiaPharma Group Inc. West Chester, Ohio 45069) in assay buffer (Example 4) was added and incubated for a final 20 minutes at 37° C. After the incubation, the beads were washed once in 150 μL of a PBS-based buffer solution (Example 3) and were resuspended in 150 μL of the same buffer before beads were read in a M1MR analyzer (BioVeris).

FXa [2] = assay: Detecting FXa activity by detection of a neoepitope, competitive immunoassay format (ECL); details: for % Signal Decrease / Mean Signal: 15 minutes at 37° C.
Text: Another method for detecting FXa activity uses a competitive immunoassay format. For example, peptide sequence VI, below, comprises a FXa recognition site (-IEGR-) (SEQ ID NO:1) at its N-terminus and the peptide sequence IV-amide (DYKDDDDKGS-amide) (SEQ ID NO:4) at its C-terminus. The FXa cleavage of the peptide bond after the arginine residue of -IEGR- (SEQ ID NO:1) sequence produces a neoepitope (SEQ ID NO:4), which can be measured with a TAG Plus-conjugated peptide (sequence VII) and a capture antibody in a competitive immunoassay format.
A FXa activity calibrator curve was set up in a 96-well U bottom microtiter plate containing 100 μL of a 3-fold serial dilution of FXa at 500, 167, 55.6, 18.5, 6.17, 2.06 and 0.686 ng/mL in the assay buffer (Example 4) and 50 μL of a master mix of FXa detection reagent containing 200 μg/mL of M280-SA beads prebound with biotinylated capture antibody (5.0 μg antibody per 1.0 mg of beads) (anti-FLAG® MD, 200 μg/mL of the NH2-IEGRDYKDDDDKGS-amide (Peptide sequence VI; SEQ ID NO:5) and 100 ng/mL of NH2-DYKDDDDKGS-TAG Plus (Peptide sequence VII; SEQ ID NO:4) in the same assay buffer. The plate was incubated on a hot plate (Example 4) at 37° C. for 15 minutes. After the incubation, the beads were washed once in 150 μL of the PBS-based buffer solution (Example 3) and were resuspended in 150 μL of the PBS-based buffer and read in a M1MR analyzer (BioVeris). FXa activities were detectable at 1.0 ng/mL or lower concentrations which produced about a 10% decrease of the background signals (the sample without FXa).

bovine factor Xa = assay: Detecting heparin activity with an ECL-based FXa activity immunoassay (with human antithrombin)
Description: A heparin activity calibrator curve was set up in a 96-well U bottom microtiter plate, which was equilibrated to 37° C. in an incubator. To each well, 25 μL of 100, 50, 25, 12.5, 6.25 and 3.13 mIU/mL heparin prepared from a heparin sodium Salt (Cat: H4784-2500MG, Sigma, St. Louis) and 25 μL of 1.0 IU/mL human antithrombin (from kit of BIOPHEN Heparin Anti-Xa, Ref: 221010, Aniara Diagnostica LLC, Columbus, Ohio) were added and incubated for 2 minutes at 37° C. Then to the mixture, 25 μL of 8.0 μg/mL bovine factor Xa (from kit of BIOPHEN Heparin Anti-Xa, Ref: 221010, Aniara Diagnostica LLC, Columbus, Ohio) was added, followed immediately with 25 μL of a master mix of FXa detection reagent containing 400 μg/mL of M280-SA beads, 1.2 μg/mL of a peptide (peptide sequence V), 2.0 μg/mL of TAG Plus anti-FLAG® M1 antibody (Example 2) and 25 mM CaCl2. The subsequent mixture was incubated for a final 20 minutes at 37° C. After the incubation, the beads were washed once in 150 μL of the PBS-based buffer solution (Example 3) and were resuspended in 150 μL of the same buffer before beads were read in a M1MR Analyzer (BioVeris).

[3] = 10 minute incubation, FXa 0.686 ng/mL
[4] = 10 minute incubation, FXa 2.06 ng/mL
[5] = 10 minute incubation, FXa 6.17 ng/mL
[6] = 10 minute incubation, FXa 18.5 ng/mL
[7] = 10 minute incubation, FXa 55.6 ng/mL
[8] = 10 minute incubation, FXa 167 ng/mL
[9] = 10 minute incubation, FXa 500 ng/mL
[10] = 20 minute incubation, FXa 0.686 ng/mL
[11] = 20 minute incubation, FXa 2.06 ng/mL
[12] = 20 minute incubation, FXa 6.17 ng/mL
[13] = 20 minute incubation, FXa 18.5 ng/mL
[14] = 20 minute incubation, FXa 55.6 ng/mL
[15] = 20 minute incubation, FXa 167 ng/mL
[16] = 20 minute incubation, FXa 500 ng/mL

Chain of bovine factor Xa (P01008 33-464): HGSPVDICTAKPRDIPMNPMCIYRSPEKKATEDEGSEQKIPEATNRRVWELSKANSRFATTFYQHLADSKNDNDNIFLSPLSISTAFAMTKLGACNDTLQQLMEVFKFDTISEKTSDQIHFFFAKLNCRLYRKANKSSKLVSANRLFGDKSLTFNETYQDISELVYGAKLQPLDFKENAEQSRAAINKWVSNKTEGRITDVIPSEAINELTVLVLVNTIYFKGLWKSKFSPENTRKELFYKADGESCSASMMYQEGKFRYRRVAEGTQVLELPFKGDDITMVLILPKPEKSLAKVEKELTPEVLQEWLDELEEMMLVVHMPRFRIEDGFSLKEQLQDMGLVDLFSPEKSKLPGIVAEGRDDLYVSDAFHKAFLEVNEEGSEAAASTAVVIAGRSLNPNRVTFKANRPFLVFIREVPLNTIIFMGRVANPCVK
Chain of FXa (P00742 41-179 limits assumed): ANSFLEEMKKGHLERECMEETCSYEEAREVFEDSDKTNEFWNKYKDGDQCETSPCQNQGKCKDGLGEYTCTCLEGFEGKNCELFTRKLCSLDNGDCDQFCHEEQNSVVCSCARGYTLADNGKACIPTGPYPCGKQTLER
Chain of FXa (P00742 235-488 limits assumed): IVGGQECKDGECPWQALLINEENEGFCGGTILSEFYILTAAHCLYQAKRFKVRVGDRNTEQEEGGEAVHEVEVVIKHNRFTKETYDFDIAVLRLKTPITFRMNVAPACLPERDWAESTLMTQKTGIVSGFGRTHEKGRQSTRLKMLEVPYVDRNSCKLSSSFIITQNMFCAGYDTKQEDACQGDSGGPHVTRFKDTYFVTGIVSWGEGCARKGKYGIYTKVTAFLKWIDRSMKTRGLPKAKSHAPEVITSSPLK

Bz-IEGRDYKDDDDKGSHHHHHH(mPeg2)(KLCBiot)-amide ({Bz′}-IEGRDYKDDDDKGSHHHHHH-{mPeg2-KLCBiot-NH2}) [Peptide sequence V]
Mean Signal (FXa [1]; [3]): 856
Signal/Background (FXa [1]; [3]): 2.5
Mean Signal (FXa [1]; [4]): 1427
Signal/Background (FXa [1]; [4]): 4.1
Mean Signal (FXa [1]; [5]): 3105
Signal/Background (FXa [1]; [5]): 9.0
Mean Signal (FXa [1]; [6]): 8793
Signal/Background (FXa [1]; [6]): 25
Mean Signal (FXa [1]; [7]): 33734
Signal/Background (FXa [1]; [7]): 98
Mean Signal (FXa [1]; [8]): 113240
Signal/Background (FXa [1]; [8]): 328
Mean Signal (FXa [1]; [9]): 298048
Signal/Background (FXa [1]; [9]): 864
Mean Signal (FXa [1]; [10]): 1047
Signal/Background (FXa [1]; [10]): 3.3
Mean Signal (FXa [1]; [11]): 2109
Signal/Background (FXa [1]; [11]): 6.6
Mean Signal (FXa [1]; [12]): 6035
Signal/Background (FXa [1]; [12]): 19
Mean Signal (FXa [1]; [13]): 20653
Signal/Background (FXa [1]; [13]): 65
Mean Signal (FXa [1]; [14]): 73974
Signal/Background (FXa [1]; [14]): 232
Mean Signal (FXa [1]; [15]): 224915
Signal/Background (FXa [1]; [15]): 706
Mean Signal (FXa [1]; [16]): 497703
Signal/Background (FXa [1]; [16]): 1562

FIX: FIX in diluted reference plasma (HEMOSIL Calibration Plasma)
Mean Signal (bovine FX; FIX 0.0335 mU/mL): 3665
Signal/Background (bovine FX; FIX 0.0335 mU/mL): 1.1
Mean Signal (bovine FX; FIX 0.100 mU/mL): 4050
Signal/Background (bovine FX; FIX 0.100 mU/mL): 1.2
Mean Signal (bovine FX; FIX 0.301 mU/mL): 5626
Signal/Background (bovine FX; FIX 0.301 mU/mL): 1.6
Mean Signal (bovine FX; FIX 0.904 mU/mL): 8707
Signal/Background (bovine FX; FIX 0.904 mU/mL): 2.5
Mean Signal (bovine FX; FIX 2.71 mU/mL): 16884
Signal/Background (bovine FX; FIX 2.71 mU/mL): 4.9
Mean Signal (bovine FX; FIX 8.13 mU/mL): 30879
Signal/Background (bovine FX; FIX 8.13 mU/mL): 9.0
Mean Signal (bovine FX; FIX 24.4 mU/mL): 40234
Signal/Background (bovine FX; FIX 24.4 mU/mL): 11.7

NH2-IEGRDYKDDDDKGS-amide (H-IEGRDYKDDDDKGS-NH2) [Peptide sequence VI]
decrease of the background signals at the detectable FXa concentration (FXa [2]; FXa 1.0 ng/mL or lower, background = sample without FXa): ~10%
% Signal Decrease (FXa [2]; Xa 0.686 ng/mL): −8.5%
Mean Signal (FXa [2]; Xa 0.686 ng/mL): 84026
% Signal Decrease (FXa [2]; Xa 2.06 ng/mL): −22%
Mean Signal (FXa [2]; Xa 2.06 ng/mL): 71945
% Signal Decrease (FXa [2]; Xa 6.17 ng/mL): −42%
Mean Signal (FXa [2]; Xa 6.17 ng/mL): 52963
% Signal Decrease (FXa [2]; Xa 18.5 ng/mL): −60%
Mean Signal (FXa [2]; Xa 18.5 ng/mL): 36383
% Signal Decrease (FXa [2]; Xa 55.6 ng/mL): −75%
Mean Signal (FXa [2]; Xa 55.6 ng/mL): 22509
% Signal Decrease (FXa [2]; Xa 167 ng/mL): −84%
Mean Signal (FXa [2]; Xa 167 ng/mL): 14300
% Signal Decrease (FXa [2]; Xa 500 ng/mL): −89%
Mean Signal (FXa [2]; Xa 500 ng/mL): 9830

heparin sodium Salt
% Signal Decrease (bovine factor Xa; Heparin 3.13 mIU/mL): −19%
Mean Signal (bovine factor Xa; Heparin 3.13 mIU/mL): 81999
% Signal Decrease (bovine factor Xa; Heparin 6.25 mIU/mL): −38%
Mean Signal (bovine factor Xa; Heparin 6.25 mIU/mL): 62502
% Signal Decrease (bovine factor Xa; Heparin 12.5 mIU/mL): −60%
Mean Signal (bovine factor Xa; Heparin 12.5 mIU/mL): 40868
% Signal Decrease (bovine factor Xa; Heparin 25.0 mIU/mL): −81%
Mean Signal (bovine factor Xa; Heparin 25.0 mIU/mL): 19648
% Signal Decrease (bovine factor Xa; Heparin 50.0 mIU/mL): −93%
Mean Signal (bovine factor Xa; Heparin 50.0 mIU/mL): 7203
% Signal Decrease (bovine factor Xa; Heparin 100 mIU/mL): −97%
Mean Signal (bovine factor Xa; Heparin 100 mIU/mL): 3322
